Assays:
Assay in all cases: relative viability (nuclei count vs DMSO), 5 days (fraction); higher = more cells survive
AZD1208 + Olaparib = compound: N[C@@H]1CCCN(c2c(/C=C3\SC(=O)NC3=O)cccc2-c2ccccc2)C1 [AZD1208] + O=C(c1cc(Cc2n[nH]c(=O)c3ccccc23)ccc1F)N1CCN(C(=O)C2CC2)CC1 [Olaparib] (partner 8 µM)
In short: (§1)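 Values are medians from duplicate plates. Each reflects relative viability, defined as the nuclei count of treated wells over that of vehicle wells. Lung cancer cell lines in 1536-well plates were pin-tool dosed one day after seeding with one drug alone or with a fixed anchor-drug dose plus five library-drug doses (not always all listed) in √10 steps, then fixed, stained and imaged at 4× after 5 days.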

XMD14-99 + Foretinib = compound: CN1CCN(CC1)C2=CC(=C(C=C2)NC3=NC(=C(S3)C(=O)C4=C(C=CC=C4Cl)Cl)N)OC [XMD14-99] + COc1cc2c(Oc3ccc(NC(=O)C4(C(=O)Nc5ccc(F)cc5)CC4)cc3F)ccnc2cc1OCCCN1CCOCC1 [Foretinib] (partner 0.25 µM)
In short: as §1

AZD1208 + Dasatinib = compound: N[C@@H]1CCCN(c2c(/C=C3\SC(=O)NC3=O)cccc2-c2ccccc2)C1 [AZD1208] + Cc1nc(Nc2ncc(C(=O)Nc3c(C)cccc3Cl)s2)cc(N2CCN(CCO)CC2)n1 [Dasatinib] (partner 0.075 µM)
In short: as §1

XMD14-99 + Lapatinib = compound: CN1CCN(CC1)C2=CC(=C(C=C2)NC3=NC(=C(S3)C(=O)C4=C(C=CC=C4Cl)Cl)N)OC [XMD14-99] + CS(=O)(=O)CCNCc1ccc(-c2ccc3ncnc(Nc4ccc(OCc5cccc(F)c5)c(Cl)c4)c3c2)o1 [Lapatinib] (partner 2 µM)
In short: as §1

## UMC-11
AZD1208 + Olaparib; first compound 0.08 µM
  relative viability: 0.27
AZD1208 + Olaparib; first compound 0.253 µM
  relative viability: 0.374
AZD1208 + Olaparib; first compound 0.8 µM
  relative viability: 0.333
AZD1208 + Olaparib; first compound 2.53 µM
  relative viability: 0.309
AZD1208 + Olaparib; first compound 8 µM
  relative viability: 0.264
XMD14-99 + Foretinib; first compound 0.08 µM
  relative viability: 1.03
XMD14-99 + Foretinib; first compound 0.8 µM
  relative viability: 1.02
XMD14-99 + Foretinib; first compound 2.53 µM
  relative viability: 1.03
XMD14-99 + Foretinib; first compound 8 µM
  relative viability: 0.865
AZD1208 + Dasatinib; first compound 0.08 µM
  relative viability: 0.462
AZD1208 + Dasatinib; first compound 0.253 µM
  relative viability: 0.469
AZD1208 + Dasatinib; first compound 0.8 µM
  relative viability: 0.446
AZD1208 + Dasatinib; first compound 2.53 µM
  relative viability: 0.483
AZD1208 + Dasatinib; first compound 8 µM
  relative viability: 0.41
XMD14-99 + Lapatinib; first compound 0.08 µM
  relative viability: 1.13
XMD14-99 + Lapatinib; first compound 0.8 µM
  relative viability: 0.969
XMD14-99 + Lapatinib; first compound 2.53 µM
  relative viability: 0.974
XMD14-99 + Lapatinib; first compound 8 µM
  relative viability: 0.744
